Measured values from patent US10202371B2, “Oxazolidin-2-one-pyrimidine derivatives and the use thereof as phosphatidylinositol-3-kinase inhibitors” (Novartis AG, priority 2012, dated 2019).
Like-named read-outs stand apart in the source and are kept apart here.

Key:
[1] = tested on: SCL-1 cells; test: BrdU cell proliferation assay SCL-1; assay type: cell-based; details: Homo sapiens, BrdU incorporation
Excerpt: (§1) The SCL-1 and SCC12B2 are human cutaneous squamous cell carcinoma (SCC) cell lines derived from naturally occurring, poorly differentiated SCCs. The SCL-1 cell line was originally established in the lab of N. Fusenig at the Cancer Research Center in Heidelberg, and its growth characteristics in vitro in comparison to normal keratinocytes were described previously (Neely et al 1991). The SCC12B2 cell line was established as described previously (Rheinwald & Beckett 1981) from the facial skin of a transplant patient who received immunosuppressive therapy for 7 years. The human SCC cell line Detroit562 was obtained from American Tissue Culture Collection (ATCC). Detroit562 is referred to as Head & Neck squamous cell carcinomas (HNSCC) and was derived from a pharyngeal SCC tumor. […]
(§2) Cells of SCC or keratinocyte lines (Detroit562, SCC12B2, SCL1, HaCaT) were used for the proliferation assays when they had reached about 80% to 90% confluency. Cells were then harvested after trypsin-mediated dislodgement from culture flasks, washed in culture medium containing 10% FCS, counted in a hemocytometer and diluted complete culture medium with 5% FCS to obtain a cell density of 5×10^4 cells/ml. […] The cell proliferation was determined on the basis of incorporation of bromodesoxy-uridin (BrdU) into cellular DNA using the chemiluminescent BrdU Cell Proliferation ELISA (Roche article #11 669 915 001). […]

[2] = tested on: Detroit562 cells; test: BrdU cell proliferation assay Detroit562; assay type: cell-based; details: Homo sapiens, Detroit 562, BrdU incorporation
Excerpt: as §1, §2

[3] = tested on: SCC12B2 cells; test: BrdU cell proliferation assay SCC12B2; assay type: cell-based; details: Homo sapiens, BrdU incorporation
Excerpt: as §1, §2

[4] = In vitro skin penetration and permeation, pig skin in Franz-type diffusion cells; assay type: in vitro ADME; details: for Permeation rate: pig skin, 48 hours exposure
Procedure: The compound was applied as 0.5% solutions in propylene glycol mixed with either ethanol or oleylalcohol to pig skin mounted in static Franz-type diffusion cells. At the end of a 48 hours exposure time, drug concentrations were measured in the skin (after removal of stratum corneum) and in the receiver. The receiver solution is a mixture of two volume parts of phosphate-buffered saline (PBS) and one volume part of fetal calf serum (FCS).

permeation rate through pig skin (in words) ([4]; pig skin in vitro): low | Permeation rate ([4]; 0.5% in PG + ethanol (7 + 3)): 1.0 ± 0.3 ng/cm^2/hr | Permeation rate ([4]; 0.5% in PG/OA (9 + 1)): 301.1 ± 129.5 ng/cm^2/hr
SMILES: C[C@H]1[C@H](c2nccs2)OC(=O)N1c1cc(-c2cnc(N)nc2C(F)(F)F)nc(N2CCOCC2)n1 [Example 1, (4S,5R)-3-(2′-Amino-2-morpholin-4-yl-4′-trifluoromethyl-[4,5′]bipyrimidinyl-6-yl)-4-methyl-5-thiazol-2-yl-oxazolidin-2-one]
IC50 ([1]; measurement #1, read-out: anti-proliferative IC50 SCL-1 measurement #1): 0.351 µM | IC50 ([1]; measurement #2, read-out: anti-proliferative IC50 SCL-1 measurement #2): 0.268 µM | IC50 ([2]; measurement #1, read-out: anti-proliferative IC50 Detroit562 measurement #1): 0.598 µM | IC50 ([2]; measurement #2, read-out: anti-proliferative IC50 Detroit562 measurement #2): 0.44 µM | IC50 ([3]; measurement #1, read-out: anti-proliferative IC50 SCC12B2 measurement #1): 1.29 µM | IC50 ([3]; measurement #2, read-out: anti-proliferative IC50 SCC12B2 measurement #2): 0.703 µM
